Calls of active or inactive are those of the source.
Assays:
[1] = ADAM10 protease inhibitors, dose response, selectivity assay for ADAM17 exosite inhibitor project, biochemical, FRET peptide substrate, recombinant human ADAM10 (AID 743259);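 also: ADAM10 enzyme cleaving a FRET peptide substrate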
[2] = inhibitors of SNCA 5'UTR-driven reporter translation, confirmation, H4 neuroglioma cells, luminescence (AID 1988); type: functional, cell-based
[3] = Luminescence Cell-Based Dose Retest to Confirm Inhibitors of Cancer Stem Cells. [Related pubchem assays (depositor defined):AID2717, AID2721]; type: functional; conditions: Homo sapiens
cells [4] = type: functional, cell-based
[5] = Luminescence Cell-Based Dose Response HTS to Identify Inhibitors of 5'UTR Stem-Loop Driven Prion Protein mRNA Translation in H4 Neuroglioblastoma Cells. [Related pubchem assays: 1827 (Project Summary), 1813 (Primary HTS)]; type: functional
cells [6] = type: functional, cell-based; remark: listed apart in the source
[7] = cytotoxicity in MIN6 insulinoma cells, dose response, cytotoxicity control, cell-based, mouse insulinoma (AID 2122); type: functional;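 also: confirmatory high-throughput counterscreen run to flag cytotoxic compounds; mouse MIN-6 beta cells carrying an insulin promoter eGFP reporter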
[8] = inhibitors of firefly luciferase expression or activity, dose response, H4 neuroglioma cells, luminescence (AID 1990); type: functional, cell-based
[9] = molecular target: T1, Disintegrin and metalloproteinase domain-containing protein 17 (Homo sapiens, UniProt P78536); experiment: exosite inhibitors of ADAM17, dose response, biochemical (AID 743260)
T1 sequence (P78536 whole entry, the tested form may be a part): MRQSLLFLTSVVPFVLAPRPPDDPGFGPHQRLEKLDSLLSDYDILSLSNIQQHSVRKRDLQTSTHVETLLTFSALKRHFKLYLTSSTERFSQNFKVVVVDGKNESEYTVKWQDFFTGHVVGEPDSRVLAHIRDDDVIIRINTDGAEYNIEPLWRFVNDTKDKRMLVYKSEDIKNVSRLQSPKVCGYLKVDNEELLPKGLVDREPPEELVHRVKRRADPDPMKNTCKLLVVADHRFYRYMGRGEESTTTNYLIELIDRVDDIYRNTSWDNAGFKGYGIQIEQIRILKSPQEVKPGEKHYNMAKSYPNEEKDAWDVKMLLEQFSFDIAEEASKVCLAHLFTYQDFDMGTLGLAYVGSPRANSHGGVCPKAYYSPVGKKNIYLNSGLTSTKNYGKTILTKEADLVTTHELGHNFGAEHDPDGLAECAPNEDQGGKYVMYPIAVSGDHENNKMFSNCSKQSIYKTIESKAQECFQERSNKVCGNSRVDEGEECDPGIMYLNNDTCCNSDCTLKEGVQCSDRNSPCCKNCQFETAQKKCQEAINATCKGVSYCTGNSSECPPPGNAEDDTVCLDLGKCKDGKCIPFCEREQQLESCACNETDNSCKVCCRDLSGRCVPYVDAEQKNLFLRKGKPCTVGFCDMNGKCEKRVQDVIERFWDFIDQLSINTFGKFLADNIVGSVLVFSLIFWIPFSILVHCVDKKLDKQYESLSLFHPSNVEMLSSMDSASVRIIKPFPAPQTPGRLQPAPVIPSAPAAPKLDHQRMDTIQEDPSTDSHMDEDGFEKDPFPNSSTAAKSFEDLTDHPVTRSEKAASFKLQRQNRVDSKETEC

[10] = insulin promoter down-regulators in MIN6 cells, imaging, high-content screening, mouse beta cells (AID 1628); type: functional
Cytochrome P450 3A4 = Cytochrome P450 3A4 (Homo sapiens, UniProt P08684);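 also: CYP3A4 tested as one member of a cytochrome P450 panel screen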
Cytochrome P450 3A4, sequence (P08684 whole entry): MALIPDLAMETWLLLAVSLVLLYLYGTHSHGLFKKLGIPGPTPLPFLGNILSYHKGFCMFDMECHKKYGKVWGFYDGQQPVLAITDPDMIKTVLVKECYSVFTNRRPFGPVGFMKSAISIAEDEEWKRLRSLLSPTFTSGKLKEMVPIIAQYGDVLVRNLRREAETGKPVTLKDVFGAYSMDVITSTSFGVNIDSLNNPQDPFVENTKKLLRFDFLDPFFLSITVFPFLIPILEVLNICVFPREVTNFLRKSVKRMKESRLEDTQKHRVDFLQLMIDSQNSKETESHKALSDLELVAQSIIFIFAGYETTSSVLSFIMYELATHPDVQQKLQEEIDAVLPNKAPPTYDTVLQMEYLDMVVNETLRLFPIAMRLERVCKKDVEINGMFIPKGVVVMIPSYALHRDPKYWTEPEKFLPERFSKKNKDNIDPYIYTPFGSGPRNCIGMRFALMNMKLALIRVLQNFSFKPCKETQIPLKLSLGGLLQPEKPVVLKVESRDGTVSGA

Cytochrome P450 2C9 = Cytochrome P450 2C9 (Homo sapiens, UniProt P11712)
Cytochrome P450 2C9, sequence (P11712 whole entry): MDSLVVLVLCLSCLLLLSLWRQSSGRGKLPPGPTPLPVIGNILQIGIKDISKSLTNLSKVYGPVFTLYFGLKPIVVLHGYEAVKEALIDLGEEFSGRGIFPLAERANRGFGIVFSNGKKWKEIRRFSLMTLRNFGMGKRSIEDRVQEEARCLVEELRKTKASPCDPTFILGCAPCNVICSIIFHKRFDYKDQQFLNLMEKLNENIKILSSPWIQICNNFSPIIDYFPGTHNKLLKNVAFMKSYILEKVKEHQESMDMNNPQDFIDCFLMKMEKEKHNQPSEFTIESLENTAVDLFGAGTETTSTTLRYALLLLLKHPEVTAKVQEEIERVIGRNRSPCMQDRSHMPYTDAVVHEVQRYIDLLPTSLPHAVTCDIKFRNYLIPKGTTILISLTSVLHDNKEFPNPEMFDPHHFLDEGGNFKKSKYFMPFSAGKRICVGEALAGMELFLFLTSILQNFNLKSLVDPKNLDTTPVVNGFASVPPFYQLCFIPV

[11] = molecular target: Kappa-type opioid receptor (Homo sapiens, UniProt P41145); experiment: SAR analysis of small molecule agonists of the kappa opioid receptor via a luminescent beta-arrestin assay - Set 3. [Related pubchem assays (depositor defined):AID1777, AID1785, AID1786, AID1966, AID2133, AID2136, AID2284, AID2500]; type: functional
Kappa-type opioid receptor, sequence (P41145 whole entry): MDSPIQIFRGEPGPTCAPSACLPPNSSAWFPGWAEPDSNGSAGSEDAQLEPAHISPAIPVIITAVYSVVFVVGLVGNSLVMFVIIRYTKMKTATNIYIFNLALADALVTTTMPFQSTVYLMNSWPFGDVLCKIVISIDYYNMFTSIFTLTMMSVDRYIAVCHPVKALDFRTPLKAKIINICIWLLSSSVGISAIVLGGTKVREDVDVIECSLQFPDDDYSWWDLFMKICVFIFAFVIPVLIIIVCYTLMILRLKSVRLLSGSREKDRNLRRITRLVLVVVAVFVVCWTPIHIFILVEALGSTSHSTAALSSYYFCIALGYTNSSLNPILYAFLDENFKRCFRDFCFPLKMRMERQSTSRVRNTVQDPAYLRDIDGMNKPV

[12] = inhibitors of intracellular T. cruzi replication, confirmation, NIH3T3 host cells, beta-gal luminescence (AID 2044); type: functional, cell-based;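 also: intracellular parasites grown in NIH/3T3 mouse fibroblasts as host cells; luminescent beta-galactosidase reporter signal from transgenic T. cruzi replicating inside host cells; inhibitors lower the luminescence signal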
[13] = cytotoxicity toward NIH3T3 fibroblasts, dose response, counter-screen, cell-based, ATP luminescence, mouse fibroblasts (AID 2010); type: functional;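 also: cells exposed to compound for about 90 hours before reading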
[14] = NIH-3T3 fibroblast cytotoxicity, dose response, cytotoxicity control, cell-based, fluorescence, Alamar Blue, secondary assay (AID 2327); type: functional;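 also: NIH-3T3 mouse fibroblasts cultured with fluconazole at 8 µg/mL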
Protein Wnt-3a = Protein Wnt-3a (Mus musculus, UniProt P27467); experiment: Wnt3a-driven reporter signaling inhibition, dose response, selectivity assay for Gli-SUFU antagonist project, Wnt-LIGHT cells, luminescence (AID 651570); type: functional; conditions: read-out: IC50_Mean;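 also: Wnt-LIGHT reporter cells stimulated with conditioned medium from Wnt3a-producing cells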
Protein Wnt-3a, sequence (P27467 whole entry): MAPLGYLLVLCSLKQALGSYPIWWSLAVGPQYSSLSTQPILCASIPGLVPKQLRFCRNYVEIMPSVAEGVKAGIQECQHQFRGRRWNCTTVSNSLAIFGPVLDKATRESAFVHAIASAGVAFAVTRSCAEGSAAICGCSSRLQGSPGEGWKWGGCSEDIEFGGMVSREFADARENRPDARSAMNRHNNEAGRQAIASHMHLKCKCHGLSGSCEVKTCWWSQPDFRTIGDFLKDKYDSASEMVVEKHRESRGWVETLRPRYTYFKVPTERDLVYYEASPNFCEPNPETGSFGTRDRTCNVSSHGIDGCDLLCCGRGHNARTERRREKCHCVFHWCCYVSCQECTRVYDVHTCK

[15] = C. albicans growth with fluconazole, confirmation, fluorescence, retest (AID 2467); type: functional, cell-based
Nonstructural protein 1 = Nonstructural protein 1 (Influenza A virus, UniProt Q194T2); type: functional, Influenza A virus (A/California/07/2009(H1N1))
Nonstructural protein 1, sequence (Q194T2 whole entry): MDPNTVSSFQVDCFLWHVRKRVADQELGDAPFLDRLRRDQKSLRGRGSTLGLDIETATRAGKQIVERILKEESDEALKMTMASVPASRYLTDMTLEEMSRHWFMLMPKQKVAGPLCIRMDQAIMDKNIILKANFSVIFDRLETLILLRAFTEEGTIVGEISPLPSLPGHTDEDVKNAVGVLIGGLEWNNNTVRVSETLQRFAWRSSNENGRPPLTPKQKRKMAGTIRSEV

[16] = molecular target: T2, E3 ubiquitin-protein ligase XIAP (Homo sapiens, UniProt P98170); experiment: Counter Screen using XIAP-Bir3 for Chemical Antagonists of Bir1/2 domains of IAP-family anti-apoptotic proteins. [Related pubchem assays (depositor defined):AID1018, AID1449, AID1514, AID1638, AID1749, AID1750, AID488957, AID488963]
T2 sequence (P98170 whole entry): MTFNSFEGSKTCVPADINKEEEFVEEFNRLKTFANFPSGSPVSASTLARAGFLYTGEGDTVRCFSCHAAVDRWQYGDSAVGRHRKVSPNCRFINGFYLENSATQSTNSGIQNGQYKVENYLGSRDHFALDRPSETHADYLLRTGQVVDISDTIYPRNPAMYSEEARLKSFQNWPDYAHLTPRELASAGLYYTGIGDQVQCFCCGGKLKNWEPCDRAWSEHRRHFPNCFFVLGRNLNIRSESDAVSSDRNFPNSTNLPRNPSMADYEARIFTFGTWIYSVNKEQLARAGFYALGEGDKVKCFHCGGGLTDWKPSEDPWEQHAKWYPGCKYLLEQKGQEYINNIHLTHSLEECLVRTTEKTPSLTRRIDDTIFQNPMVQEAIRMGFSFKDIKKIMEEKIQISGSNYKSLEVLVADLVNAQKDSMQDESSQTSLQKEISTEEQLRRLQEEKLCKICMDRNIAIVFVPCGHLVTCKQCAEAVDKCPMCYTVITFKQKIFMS

H9c2 = experiment: cells; type: functional, cell-based; conditions: Rattus norvegicus, H9c2, Myocardium;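 also: confirmatory concentration-response retest of ultra-high-throughput screening hits for modulation of myocardial damage; cell death induced by hydrogen peroxide oxidative stress; compound pretreatment for 60 min then peroxide exposure for 2 h; potency is for protecting the cells against peroxide damage rather than for killing them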
[17] = molecular target: T2, E3 ubiquitin-protein ligase XIAP; experiment: XIAP antagonists, biochemical, IAP family, fluorescence polarization (AID 1018); type: functional
HEK293 [18] = experiment: cells; type: functional, cell-based; conditions: Homo sapiens
HEK293 [19] = experiment: NOD1 signaling inhibitors, primary screen, cell-based, luminescence, uHTS (AID 1578); type: functional; conditions: Homo sapiens
[20] = tested on: Streptococcus sp. 'group A'; experiment: growth inhibition of control SK(-) GAS strain, dose response, counter-screen for streptokinase expression inhibitor project, luminescence, kanamycin, BacTiterGlo, confirmation (AID 1900); type: functional, organism-based
[21] = molecular target: Nucleotide-binding oligomerization domain-containing protein 2 (Homo sapiens, UniProt Q9HC29); experiment: NOD2 signaling inhibitors, cell-based, luminescence, uHTS, HEK293 (AID 1566); type: functional
Nucleotide-binding oligomerization domain-containing protein 2, sequence (Q9HC29 whole entry, the tested form may be a part): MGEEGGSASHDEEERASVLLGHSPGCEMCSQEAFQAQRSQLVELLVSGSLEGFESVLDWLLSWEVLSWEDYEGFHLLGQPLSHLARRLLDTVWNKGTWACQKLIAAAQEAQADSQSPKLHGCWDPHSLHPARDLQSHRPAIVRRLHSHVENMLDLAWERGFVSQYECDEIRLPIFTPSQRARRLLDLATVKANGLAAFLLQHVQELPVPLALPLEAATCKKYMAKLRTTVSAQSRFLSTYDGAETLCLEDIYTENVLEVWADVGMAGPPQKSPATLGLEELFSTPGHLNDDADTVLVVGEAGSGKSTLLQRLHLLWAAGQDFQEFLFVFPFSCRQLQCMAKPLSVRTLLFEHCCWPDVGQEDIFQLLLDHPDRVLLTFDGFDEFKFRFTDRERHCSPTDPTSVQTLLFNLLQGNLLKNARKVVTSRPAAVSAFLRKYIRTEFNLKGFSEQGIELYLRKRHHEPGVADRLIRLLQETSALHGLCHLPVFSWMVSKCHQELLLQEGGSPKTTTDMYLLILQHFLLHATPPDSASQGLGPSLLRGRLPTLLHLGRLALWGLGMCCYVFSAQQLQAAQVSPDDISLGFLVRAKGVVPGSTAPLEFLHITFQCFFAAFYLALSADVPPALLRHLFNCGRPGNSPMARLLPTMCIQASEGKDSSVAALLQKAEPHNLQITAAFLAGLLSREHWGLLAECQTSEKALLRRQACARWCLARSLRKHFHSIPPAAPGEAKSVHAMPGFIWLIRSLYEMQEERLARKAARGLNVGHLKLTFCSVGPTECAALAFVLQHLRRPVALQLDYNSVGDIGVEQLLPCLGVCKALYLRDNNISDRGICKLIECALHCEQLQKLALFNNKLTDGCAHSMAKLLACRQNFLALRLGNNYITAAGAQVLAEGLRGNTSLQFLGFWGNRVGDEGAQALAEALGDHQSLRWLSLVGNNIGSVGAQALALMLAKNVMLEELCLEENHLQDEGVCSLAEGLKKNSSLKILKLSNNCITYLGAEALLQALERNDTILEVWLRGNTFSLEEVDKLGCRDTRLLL

HEK293 [22] = experiment: cells; type: functional, cell-based; conditions: Homo sapiens; remark: listed apart in the source
HEK293 [23] = experiment: NOD2 signaling inhibitors in MDP-stimulated cells, cell-based, uHTS, luminescence (AID 2001); type: functional; conditions: Homo sapiens
Streptokinase A = molecular target: T3, Streptokinase A (Streptococcus pyogenes serotype M1, UniProt P10520); experiment: S. pyogenes streptokinase expression inhibitors, potency, dose response, plasminogen activation absorbance, OD405 (AID 1914); type: functional, Streptococcus pyogenes M1 GAS;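 also: secreted streptokinase activity via plasminogen activation per viability signal from cell pellet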
T3 sequence (P10520 whole entry): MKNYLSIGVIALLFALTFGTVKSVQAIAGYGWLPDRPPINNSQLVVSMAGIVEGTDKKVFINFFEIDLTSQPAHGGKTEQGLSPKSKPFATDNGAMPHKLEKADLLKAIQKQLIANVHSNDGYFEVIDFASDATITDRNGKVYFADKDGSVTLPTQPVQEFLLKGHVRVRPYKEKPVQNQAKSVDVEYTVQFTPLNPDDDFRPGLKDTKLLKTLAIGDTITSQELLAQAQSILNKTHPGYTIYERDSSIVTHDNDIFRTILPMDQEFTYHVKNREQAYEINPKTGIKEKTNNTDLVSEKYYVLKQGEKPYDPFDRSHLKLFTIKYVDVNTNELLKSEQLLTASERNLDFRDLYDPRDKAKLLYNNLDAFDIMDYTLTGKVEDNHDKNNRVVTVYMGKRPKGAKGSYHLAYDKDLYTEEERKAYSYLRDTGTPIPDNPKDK

[24] = molecular target: T1, Disintegrin and metalloproteinase domain-containing protein 17; experiment: ADAM17 protease inhibitors, dose response, counter-screen for ADAM10 exosite inhibitor project, biochemical, quenched FRET substrate (AID 743253)
Streptococcus = experiment: Group A Streptococcus viability loss, dose response, counter-screen for streptokinase expression inhibitor project, luminescence, BacTiterGlo (AID 1915); type: functional, organism-based;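 also: potency for reduction of bacterial viability or growth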
HEK293 [25] = experiment: cells; type: functional, cell-based; conditions: Homo sapiens; remark: listed apart in the source

SMILES: O=C(NC(CSCc1ccccc1)C(=O)N/N=C/c1ccc(O)cc1O)c1ccc([N+](=O)[O-])cc1 (stereo unspecified)
- IC50 [1]: > 69.5 µM (inactive)
- EC50 [2]: 5.27 µM (active)
- AC50 [3]: 3 µM (active)
- EC50 (cells [4]): > 350 µM (not active)
- EC50 [5]: 10.9 µM (active)
- EC50 (cells [6]): 9.52 µM (active)
- IC50 [7]: 3.07 µM (active)
- EC50 [8]: 6.53 µM (inconclusive)
- IC50 [9]: > 69.5 µM (inactive)
- IC50 [10]: 2.19 µM (active)

SMILES: CSc1nc2nc3c(c(O)n2n1)CN(Cc1ccccc1)CC3
- AC50 (Cytochrome P450 3A4): inconclusive
- AC50 (Cytochrome P450 2C9): 15.8 µM (inconclusive)

SMILES: Clc1ccc(CSc2nnc(-c3ccccn3)n2Cc2ccccc2Cl)cc1Cl
- EC50 [11]: 11.8 µM (inactive)

SMILES: CC(C)CCOC(=O)C[N+](C)(C)CCOC1CC2CCC1(C)C2(C)C (stereo unspecified)
- EC50 [12]: 0.286 µM (active)
- EC50 [13]: > 60 µM (not active)
- EC50 [14]: > 160 µM (inactive)
- IC50 [7]: < 0.25 µM (active)
- IC50 (Protein Wnt-3a): 5.09 µM (active)
- EC50 [15]: 1.3 µM (active)
- IC50 [10]: 0.643 µM (active)

SMILES: O=C(CN1C(=O)CCC1=O)Nc1nc(-c2ccccn2)cs1
- IC50 (Nonstructural protein 1): 4.83 µM (active)
- IC50 [16]: > 100 µM (inactive)
- IC50 (H9c2): 33.4 µM (inactive)
- IC50 [17]: > 100 µM (not active)

SMILES: COc1ccc(-c2c[nH]nc2-c2ccc(OCc3ccccc3)cc2O)cc1
- IC50 (HEK293 [18]): > 20 µM (inactive)
- AC50 [3]: 6.84 µM (active)
- EC50 (HEK293 [19]): 12.2 µM (active)
- EC50 [20]: 2.68 µM (active)
- EC50 [21]: 2.22 µM (active)
- IC50 (HEK293 [22]): > 20 µM (inactive)
- IC50 (HEK293 [23]): 3.21 µM (active)
- EC50 (Streptokinase A): > 150 µM (inconclusive)
- IC50 [24]: > 69.5 µM (inactive)
- EC50 (Streptococcus): 17.7 µM (active)
- IC50 (HEK293 [25]): 1.84 µM (active)

SMILES: O=C(c1cccc(F)c1)N1CCC2(CCN(Cc3nccs3)CC2)CC1
- AC50 (Cytochrome P450 3A4): inconclusive

Source: ChEMBL document CHEMBL1201862, “PubChem BioAssay data set” (2004)
